Assay results taken from PMC9032790.
In brackets after ≈: the same amount, converted by molar mass. Marks after values point to notes of the source that are not given here.

Tests used:
[1] = system: 5C3-RAb; assay: THC-H-OVA-based heterologous ic-ELISA with 5C3-RAb; format: binding, mouse; settings: for cross-reactivity rate: ic-ELISA, IC50 of clothianidin / IC50 of analogue × 100%
[2] = system: 1F7-RAb; assay: IMI-H-OVA-based heterologous ic-ELISA with 1F7-RAb; format: binding, mouse; settings: for cross-reactivity rate: ic-ELISA, IC50 of clothianidin / IC50 of analogue × 100%
[3] = system: PcAb [22] (anti-clothianidin antibody); design: method as in PMID 23527939; settings: ic-ELISA, cited from earlier work; for cross-reactivity rate: IC50 of clothianidin / IC50 of analogue × 100%
[4] = system: McAb [23] (anti-clothianidin antibody); design: method as in PMID 23202236; settings: ic-ELISA, cited from earlier work; for cross-reactivity rate: IC50 of clothianidin / IC50 of analogue × 100%
[5] = system: McAb [35] (anti-clothianidin antibody); design: method as in PMID 25173856; settings: ic-ELISA, cited from earlier work; for cross-reactivity rate: IC50 of clothianidin / IC50 of analogue × 100%
[6] = system: 5C3-McAb; assay: heterologous ic-ELISA with 5C3-McAb; settings: for cross-reactivity rate: IC50 of clothianidin / IC50 of analogue × 100%
[7] = system: 1F7-McAb; assay: heterologous ic-ELISA with 1F7-McAb; settings: for cross-reactivity rate: IC50 of clothianidin / IC50 of analogue × 100%
[8] = system: 1F7-RAb; assay: non-competitive SPR with immobilized 1F7-RAb; format: binding, mouse
[9] = system: 5C3-RAb; assay: non-competitive SPR with immobilized 5C3-RAb; format: binding, mouse
[10] = system: 1F7-RAb; assay: 1F7-RAb-based GICA, selectivity and sensitivity in standard solution; format: binding, mouse; settings: analyte at 1000 μg/L, judged with the naked eye
[11] = system: six potential antibodies from hybridoma culture supernatants; assay: homologous ic-ELISA hybridoma screening (CLO-H-OVA); settings: free clothianidin 50 μg/L; CLO-H-OVA 5 μg/mL
[12] = 8 neonicotinoids at the same concentration of 50 nM
[13] = SPR, 1:1 binding kinetic model, read-out: KD (dissociation equilibrium constant)

SMILES | cross-reactivity rate [1] [%] | cross-reactivity rate [2] | cross-reactivity rate [3] | cross-reactivity rate [4] [%] | cross-reactivity rate [5] [%] | cross-reactivity rate [6] [%] | cross-reactivity rate [7] [%] | further results
O=[N+]([O-])/N=C1\NCCN1Cc1ccc(Cl)nc1 [C00003] | <0.1 | <0.1% | 0.8% | <0.1 | <0.03 | <0.1 | <0.1 | 
C/C(=N\C#N)N(C)Cc1ccc(Cl)nc1 [C00004] | <0.1 | <0.1% | <0.05% | <0.1 | <0.03 | <0.1 | <0.1 | 
N#C/N=C1\SCCN1Cc1ccc(Cl)nc1 [C00005] | <0.1 | <0.1% | <0.05% | <0.1 | <0.03 | <0.1 | <0.1 | 
CN1COCN(Cc2cnc(Cl)s2)/C1=N/[N+](=O)[O-] [C00006] | <0.1 | <0.1% | <0.05% | <0.1 | <0.03 | <0.1 | <0.1 | 
CCN(Cc1ccc(Cl)nc1)/C(=C\[N+](=O)[O-])NC [C00007] | <0.1 | <0.1% | <0.05% | <0.1 | <0.03 | <0.1 | <0.1 | 
O=[N+]([O-])/N=C1/NCCN1Cc1cnc(Cl)s1 [C00008] | <0.1 | <0.1% | <0.05% | <0.1 | <0.03 | <0.1 | <0.1 | 
CN/C(=N\[N+](=O)[O-])NCc1cnc(Cl)s1 [clothianidin] | 100 | 100% | 100% | 100 | 100 | 100 | 100 | IC50 value ([1]; heterologous ic-ELISA, 5 μg/mL of THC-H-OVA, listed as C00001): 5.22 ng/mL (≈ 0.0209 µM); IC50 value ([2]; heterologous ic-ELISA, 1.25 μg/mL of IMI-H-OVA): 4.62 ng/mL (≈ 0.0185 µM); SPR binding selectivity signal [8, 12]: high signal; Kd [8, 13]: 3.24 nM; SPR binding selectivity signal [9, 12]: high signal; Kd [9, 13]: 7.96 nM; GICA cross-reaction test, effect on T line [10]: complete disappearance of the T line; IC50 value [3]: 46 ng/mL (≈ 0.184 µM); IC50 value [4]: 4.4 ng/mL (≈ 0.0176 µM); IC50 value [5]: 25.6 ng/mL (≈ 0.103 µM); IC50 value [6]: 13.16 ng/mL (≈ 0.0527 µM); IC50 value [7]: 5.38 ng/mL (≈ 0.0215 µM); inhibition of binding of CLO-H-OVA to antibodies [11]: less than 11%
CN/C(=N/CC1CCOC1)N[N+](=O)[O-] (stereo not shown) [dinotefuran] | 56 | no obvious cross-reaction | 11.8 ^c % | 64 | 47.8 | 42.4 | <0.1 | cross-reactivity rate ([2]; listed as C00002): <0.1%
